Source: ChEMBL document CHEMBL6103539, “A critical analysis of design, binding pattern and SAR of benzo-fused heteronuclear compounds as VEGFR-2 inhibitors” (Bioorg Med Chem, 2024)
≈ marks a conversion by molar mass, not a printed value.

Key:
[1] = test system: MCF7; experiment: Antiproliferative activity against human MCF7 cells assessed as cell growth inhibition measured for 24 hrs by MTT assay; format: functional, cell-based; details: MCF7, 24 h
[2] = test system: HepG2; experiment: Antiproliferative activity against human HepG2 cells assessed as cell growth inhibition measured for 24 hrs by MTT assay; format: functional, cell-based; details: HepG2, 24 h
[3] = test system: HCT-116; experiment: Antiproliferative activity against human HCT-116 cells assessed as cell growth inhibition measured for 24 hrs by MTT assay; format: functional, cell-based; details: HCT-116, 24 h
[4] = target: T1, Vascular endothelial growth factor receptor 2 (Homo sapiens, UniProt P35968); experiment: Inhibition of VEGFR-2 (unknown origin) at 1 uM by ELISA method relative to control
T1 sequence (P35968 whole entry): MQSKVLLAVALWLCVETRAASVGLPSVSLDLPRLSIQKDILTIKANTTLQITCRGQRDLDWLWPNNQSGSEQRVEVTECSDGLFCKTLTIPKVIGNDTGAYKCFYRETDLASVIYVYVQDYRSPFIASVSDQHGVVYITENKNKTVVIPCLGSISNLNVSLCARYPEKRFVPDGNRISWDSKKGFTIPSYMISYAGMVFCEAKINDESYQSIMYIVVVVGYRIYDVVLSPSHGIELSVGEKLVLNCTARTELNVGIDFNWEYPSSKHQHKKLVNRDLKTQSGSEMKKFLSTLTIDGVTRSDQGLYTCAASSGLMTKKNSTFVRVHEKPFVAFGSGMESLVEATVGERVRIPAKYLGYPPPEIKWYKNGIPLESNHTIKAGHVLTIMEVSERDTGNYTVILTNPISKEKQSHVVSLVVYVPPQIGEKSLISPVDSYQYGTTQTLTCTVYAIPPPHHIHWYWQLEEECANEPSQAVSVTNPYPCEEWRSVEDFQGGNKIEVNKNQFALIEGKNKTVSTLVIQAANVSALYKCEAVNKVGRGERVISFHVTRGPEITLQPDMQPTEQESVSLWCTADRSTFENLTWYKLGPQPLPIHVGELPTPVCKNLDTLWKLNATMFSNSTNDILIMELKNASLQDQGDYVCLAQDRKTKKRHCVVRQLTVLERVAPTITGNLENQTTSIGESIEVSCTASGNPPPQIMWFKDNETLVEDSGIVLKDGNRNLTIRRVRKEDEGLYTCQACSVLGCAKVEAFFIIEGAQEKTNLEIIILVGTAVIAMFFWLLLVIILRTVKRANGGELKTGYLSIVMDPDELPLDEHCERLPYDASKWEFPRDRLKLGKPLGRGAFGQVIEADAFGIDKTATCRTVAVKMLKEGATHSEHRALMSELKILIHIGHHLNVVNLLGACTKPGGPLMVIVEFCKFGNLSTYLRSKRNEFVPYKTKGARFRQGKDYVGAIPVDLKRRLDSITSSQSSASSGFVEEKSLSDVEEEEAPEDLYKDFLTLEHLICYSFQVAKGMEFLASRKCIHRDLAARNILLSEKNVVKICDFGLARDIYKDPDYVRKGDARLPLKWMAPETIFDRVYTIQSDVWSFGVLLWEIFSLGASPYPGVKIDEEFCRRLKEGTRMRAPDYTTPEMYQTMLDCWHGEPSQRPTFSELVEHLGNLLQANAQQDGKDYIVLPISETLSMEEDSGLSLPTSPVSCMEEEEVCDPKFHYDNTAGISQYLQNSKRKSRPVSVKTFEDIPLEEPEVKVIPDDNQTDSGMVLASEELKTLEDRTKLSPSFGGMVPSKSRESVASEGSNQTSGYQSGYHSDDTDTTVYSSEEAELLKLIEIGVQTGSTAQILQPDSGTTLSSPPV

[5] = test system: HeLa; experiment: Cytotoxicity against human HeLa cells assessed as reduction in cell viability incubated for 72 hrs by CCK-8 assay; format: functional, cell-based
[6] = test system: HT-29; experiment: Cytotoxicity against human HT-29 cells assessed as reduction in cell viability incubated for 72 hrs by CCK-8 assay; format: functional, cell-based; details: HT-29, 72 h
[7] = Cytotoxicity against human HUVEC cells assessed as reduction in cell viability incubated for 72 hrs by CCK-8 assay; format: toxicity, cell-based
[8] = Cytotoxicity against human A549 cells assessed as reduction in cell viability incubated for 72 hrs by CCK-8 assay; format: toxicity, cell-based
[9] = Cytotoxicity against human MDA-MB-435 cells assessed as reduction in cell viability incubated for 72 hrs by CCK-8 assay; format: toxicity, cell-based
[10] = test system: MCF7; experiment: Cytotoxicity against human MCF7 cells assessed as reduction in cell viability incubated for 48 hrs by SRB assay; format: functional, cell-based; details: MCF7, 48 h
[11] = target: T1, Vascular endothelial growth factor receptor 2; experiment: Inhibition of VEGFR2 in human MCF7 cells by horseradish peroxidase-coupled TMB substrate based ELISA; format: cell-based
[12] = test system: HepG2; experiment: cells; details: Homo sapiens, HepG2, 72 h
Description: Cytotoxicity against human HepG2 cells assessed as reduction in cell viability incubated for 72 hrs by MTT assay

[13] = test system: HCT-116; experiment: cells; details: Homo sapiens, HCT-116, 72 h
Description: Cytotoxicity against human HCT-116 cells assessed as reduction in cell viability incubated for 72 hrs by MTT assay

[14] = test system: MCF7; experiment: cells; details: Homo sapiens, MCF7, 72 h
Description: Cytotoxicity against human MCF7 cells assessed as reduction in cell viability incubated for 72 hrs by MTT assay

[15] = test system: MCF7; experiment: Cytotoxicity against human MCF7 cells assessed as reduction in cell viability incubated for 48 hrs by MTT assay; format: functional, cell-based; details: MCF7, 48 h
[16] = target: T1, Vascular endothelial growth factor receptor 2; experiment: Inhibition of human VEGFR-2 by ELISA method
[17] = target: T1, Vascular endothelial growth factor receptor 2; experiment: Inhibition of VEGFR-2 in human MCF7 cells by ELISA method; format: cell-based
[18] = test system: A549; experiment: Cytotoxicity against human A549 cells assessed as reduction in cell growth incubated for 24 hrs by MTT assay; format: functional, cell-based; details: A549, 24 h
[19] = test system: NCI-H460; experiment: Cytotoxicity against human NCI-H460 cells assessed as reduction in cell growth incubated for 24 hrs by MTT assay; format: functional, cell-based; details: NCI-H460, 24 h
[20] = target: T1, Vascular endothelial growth factor receptor 2; experiment: Inhibition of GST-tagged human recombinant VEGFR2 at 10 uM using Poly(4:1 Glu, Tyr) as substrate by Kinase-Glo Max reagent based luminescence analysis relative to control
[21] = test system: HCT-116; experiment: Antiproliferative activity against human HCT-116 cells assessed as reduction in cell viability incubated for 48 hrs by MTT assay; format: functional, cell-based; details: HCT-116, 48 h
[22] = test system: A549; experiment: Antiproliferative activity against human A549 cells assessed as reduction in cell viability incubated for 48 hrs by MTT assay; format: functional, cell-based; details: A549, 48 h
[23] = test system: HepG2; experiment: Cytotoxicity against human HepG2 cells assessed as reduction in cell growth by MTT assay; format: functional, cell-based
[24] = test system: HCT-116; experiment: Cytotoxicity against human HCT-116 cells assessed as reduction in cell growth by MTT assay; format: functional, cell-based
[25] = test system: MCF7; experiment: Cytotoxicity against human MCF7 cells assessed as reduction in cell growth by MTT assay; format: functional, cell-based
[26] = test system: UO-31; experiment: Antiproliferative activity against human UO-31 cells assessed as reduction in cell viability incubated for 48 hrs by MTT assay; format: functional, cell-based; details: UO-31, 48 h
[27] = test system: SK-MEL-2; experiment: Inhibition of cell proliferation in human SK-MEL-2 cells at 0.3 uM relative to control; format: functional
[28] = test system: NCI-H522; experiment: Inhibition of cell proliferation in human NCI-H522 cells at 0.3 uM relative to control; format: functional
[29] = test system: MCF7; experiment: Growth inhibition of human MCF7 cells; format: functional
[30] = target: T1, Vascular endothelial growth factor receptor 2; experiment: Inhibition of VEGFR-2 (unknown origin)
[31] = test system: MCF7; experiment: Cytotoxicity against human MCF7 cells; format: functional, cell-based
[32] = test system: A549; experiment: Cytotoxicity against human A549 cells; format: functional, cell-based
[33] = test system: DU-145; experiment: Cytotoxicity against human DU-145 cells; format: functional, cell-based
[34] = test system: HepG2; experiment: Anticancer activity against human HepG2 cells assessed as reduction in cell viability measured after 72 hrs by MTT assay; format: functional, cell-based; details: HepG2, 72 h

O=C(CSc1nc2ccccc2o1)Nc1ccc(C(=O)Nc2ccc([N+](=O)[O-])cc2)cc1
IC50 [1]: 3.43 µM
IC50 [2]: 2.43 µM
IC50 [3]: 2.79 µM

Cn1c(COC(=O)c2c[nH]c3ccc(Br)cc23)nc2ccccc21
inhibition [4]: 28.8%
IC50 [5]: 0.33 µM
IC50 [6]: 0.33 µM
IC50 at 72 h [7]: 0.32 µM
IC50 at 72 h [8]: 0.45 µM
IC50 at 72 h [9]: 0.27 µM

COc1cc(-c2nc3ccccc3s2)ccc1OCC(=O)N/N=C/c1ccc(O)cc1
IC50 [10]: 7.83 µM
IC50 [11]: 0.19 µM

O=C(CCSc1nc2ccccc2o1)Nc1ccc(S(=O)(=O)NC(=O)Nc2ccccc2)cc1
IC50 [12]: 8.75 µM
IC50 [13]: 9.52 µM
IC50 [14]: 9.95 µM

O=[N+]([O-])c1ccc(CNc2cccc(-c3nc4ccccc4[nH]3)c2)cc1
IC50 [15]: 3.37 µM
IC50 [16]: 0.0067 µM
IC50 [17]: 0.0067 µM

COc1ccccc1NC(=O)c1ccc(NC(=O)CSc2nc3ccccc3o2)cc1
IC50 [1]: 4 µM
IC50 [2]: 3.95 µM

Cc1ccc2oc(SCC(=O)Nc3ccc(C(=O)Nc4ccc(O)cc4)cc3)nc2c1
IC50 [1]: 18.2 µM
IC50 [2]: 7.01 µM

COc1cc(/C=N/NC(=O)COc2ccc(-c3nc4ccccc4s3)cc2OC)ccc1O
IC50 [10]: 6.58 µM
IC50 [11]: 0.17 µM

O=C(CCSc1nc2ccccc2o1)Nc1nnc(-c2ccccc2)s1
IC50 [12]: 9.97 µM
IC50 [13]: 6.99 µM
IC50 [14]: 7.89 µM

COc1ccc(/C=N/N=C(/c2ccccc2)c2ccc3nc(-c4ccc(Cl)cc4)[nH]c3c2)cc1
IC50 [18]: 3.58 µM
IC50 [19]: 1.71 µM
inhibition [20]: 86.2%

Cc1ccc2oc(SCCC(=O)Nc3nnc(-c4ccccc4)s3)nc2c1
IC50 [12]: 9.45 µM
IC50 [13]: 5.76 µM
IC50 [14]: 7.36 µM

O=[N+]([O-])c1ccc(NC(=S)Nc2cccc(-c3nc4ccccc4[nH]3)c2)cc1
IC50 [15]: 5.84 µM
IC50 [16]: 0.0067 µM
IC50 [17]: 0.0089 µM

Cc1ccc2oc(SCC(=O)Nc3ccc(C(=O)Nc4cccc(Cl)c4)cc3)nc2c1
IC50 [1]: 15.2 µM
IC50 [2]: 10.5 µM

O=C(CCc1nnc2sc(-c3ccc(Br)cc3)nn12)c1nc2cc([N+](=O)[O-])ccc2[nH]1
IC50 [21]: 9.03 µM
IC50 [22]: 6.17 µM

Clc1ccc(/C=N/N=C(/c2ccccc2)c2ccc3nc(-c4ccc(Cl)cc4)[nH]c3c2)cc1
IC50 [18]: 1.88 µM
IC50 [19]: 0.85 µM
inhibition [20]: 89.9%

CCNC(=S)NS(=O)(=O)c1ccc(NC(=O)CCSc2nc3ccccc3o2)cc1
IC50 [12]: 8.1 µM
IC50 [13]: 7.91 µM
IC50 [14]: 12.3 µM

O=C(OCc1nc2ccccc2[nH]1)c1c[nH]c2ccccc12
inhibition [4]: 34%
IC50 [5]: 0.19 µM
IC50 [6]: 0.19 µM
IC50 at 72 h [7]: 0.56 µM
IC50 at 72 h [8]: 0.54 µM
IC50 at 72 h [9]: 0.37 µM

Cc1c(C(=O)NNC(=S)Nc2ccc(Cl)cc2)nnn1Cc1nc2ccccc2[nH]1
IC50 [23]: 7.8 µM
IC50 [24]: 8.34 µM
IC50 [25]: 6.81 µM

COc1cc(C2OC(CCC(=O)c3nc4cc([N+](=O)[O-])ccc4[nH]3)=NN2C(C)=O)cc(OC)c1OC (configuration not stated)
IC50 [26]: 19.1 µM
inhibition at 0.3 µM [27]: 42.6%
inhibition at 0.3 µM [28]: 48.7%

O=C(CCc1nnc2sc(CCc3ccccc3)nn12)c1nc2cc([N+](=O)[O-])ccc2[nH]1
IC50 [21]: 2.19 µM
IC50 [22]: 11 µM

Cc1ccc2oc(SCCC(=O)Nc3ccc(S(=O)(=O)NC(=O)NC4CCCCC4)cc3)nc2c1
IC50 [12]: 4.13 µM
IC50 [13]: 6.93 µM
IC50 [14]: 8.67 µM

CCNC(=S)NS(=O)(=O)c1ccc(NC(=O)CCSc2nc3cc(C)ccc3o2)cc1
IC50 [12]: 9.95 µM
IC50 [13]: 12.5 µM
IC50 [14]: 15.7 µM

COc1ccc2[nH]cc(C(=O)OCc3nc4ccccc4n3C)c2c1
inhibition [4]: 36.7%
IC50 [5]: 0.26 µM
IC50 [6]: 0.26 µM
IC50 at 72 h [7]: 0.32 µM
IC50 at 72 h [8]: 0.3 µM
IC50 at 72 h [9]: 0.45 µM

O=C(CCc1nnc2sc(COc3ccccc3)nn12)c1nc2cc([N+](=O)[O-])ccc2[nH]1
IC50 [26]: 32.9 µM

Cn1c(COC(=O)c2c[nH]c3ccccc23)nc2ccccc21
inhibition [4]: 33.9%
IC50 [5]: 0.27 µM
IC50 [6]: 0.36 µM
IC50 at 72 h [7]: 0.26 µM
IC50 at 72 h [8]: 0.21 µM
IC50 at 72 h [9]: 0.54 µM

Cc1ccc2[nH]c(-c3ccc(C(=O)N/N=C/c4ccc(Cl)cc4Cl)cc3)nc2c1
GI [29]: 30.51 µM

COc1cc(/C=N/NC(=O)c2ccc(-c3nc4cc(C)ccc4[nH]3)cc2)cc(OC)c1OC
GI [29]: 84.33 µM

O=C(Nc1ccc([N+](=O)[O-])cc1)Nc1cccc(-c2nc3ccccc3[nH]2)c1
IC50 [15]: 7.18 µM
IC50 [16]: 0.0067 µM
IC50 [17]: 0.0068 µM

COC(=O)COc1ccc(/C=N/NC(=O)COc2ccc(-c3nc4ccccc4s3)cc2OC)cc1OC
IC50 [10]: 21.9 µM
IC50 [11]: 0.13 µM

COc1cc(/C=N/NC(=O)c2nnn(Cc3nc4ccccc4[nH]3)c2C)ccc1O
IC50 [23]: 10.9 µM
IC50 [24]: 3.34 µM
IC50 [25]: 7.11 µM
IC50 [30]: 0.229 µM

COc1cc(/C=C2/C=C(c3nc4ccccc4[nH]3)NC2=O)ccc1O
IC50 [31]: 7.3 µM
IC50 [32]: 9.6 µM
IC50 [33]: 8.7 µM

O=C(CSc1nc2ccccc2o1)Nc1ccc(C(=O)NC2CCCCC2)cc1
IC50 [1]: 7.2 µM
IC50 [3]: 7.8 µM

Cc1ccc2oc(SCCC(=O)Nc3ccc(S(=O)(=O)NC(=O)Nc4ccccc4)cc3)nc2c1
IC50 [12]: 6.58 µM
IC50 [13]: 9.1 µM
IC50 [14]: 10.1 µM

COc1cc(-c2nc3ccccc3s2)ccc1OCC(=O)N/N=C/c1ccc([N+](=O)[O-])cc1
IC50 [10]: 28.4 µM
IC50 [11]: 0.18 µM

COc1ccc(-c2nn(-c3ccccc3)cc2/C=C2/S/C(=N\N=C(/C)c3nc4ccccc4[nH]3)N(c3ccc(Cl)cc3)C2=O)cc1
IC50 [34]: 11 µg/mL (≈ 17.1 µM)
IC50 [15]: 5.84 µM

COc1cc(/C=C2/C=C(c3nc4ccccc4[nH]3)NC2=O)cc(OC)c1OC
IC50 [31]: 7.2 µM
IC50 [32]: 8.3 µM
IC50 [33]: 7.7 µM

Clc1cccc(Cl)c1CNc1cccc(-c2nc3ccccc3[nH]2)c1
IC50 [15]: 6.3 µM
IC50 [16]: 0.0067 µM
IC50 [17]: 0.0069 µM
